Data reported in PMC11503492, “Activity-Based DNA-Encoded Library Screening for Selective Inhibitors of Eukaryotic Translation” (ACS Central Science, 2024).

Legend:
[1] = tested on: RPL27[1:32]-GFP translation; assay: WG IVTT activity assay, RPL27[1:32]-GFP template; assay type: biochemical, wheat germ
Source text: A commercially available wheat germ lysate (WG) IVTT system was employed to assay translation inhibition. Translation activity was detected via a GFP reporter, and the assay was miniaturized to picoliter-scale microfluidic droplets (Figure 1A,B). […] PCSK9 and RPL27 were truncated to the first 33 and 32 amino acids, respectively (PCSK9[1:33] and RPL27[1:32]). The sequences contain distinct PF846 stall sites and were both fused to a GFP reporter. The GFP reporter and a frameshift mutant of PCSK9[1:33] (PCSK9-FS[1:33]), which mutates the nascent chain sequence while maintaining a nearly identical mRNA sequence, were included as negative controls.[13] […] The WG IVTT assay was miniaturized using a previously described microfluidic circuit modified for longer incubation times (Figure S1)[27] using PF846 as a positive control compound, and assay statistical quality was calculated (Z′=0.7) (Figure 1E). […] Assay statistical quality using PC-HygB positive control beads was similarly calculated (Z′ = 0.75, Figure 1H). […]
429 of encoding region identifiers was then determined using a UMI aggregation algorithm; […]
433 manually determined threshold (10) were discarded. […]
(§1) 440 progress was immediately monitored (λex = 480 nm, λem = 530 nm, 27 °C, 2 h). […]
(§2) 441 tive activity was calculated using the slope of fluorescence increase over time (at 15–30 […]
Figure S11. […] Compound 8 (black) and PF846 (gray) were analyzed […]

GFP reporter translation = assay: WG IVTT activity assay, GFP reporter control; assay type: biochemical, wheat germ; settings: negative control
Source text: A commercially available wheat germ lysate (WG) IVTT system was employed to assay translation inhibition. Translation activity was detected via a GFP reporter, and the assay was miniaturized to picoliter-scale microfluidic droplets (Figure 1A,B). […] PCSK9 and RPL27 were truncated to the first 33 and 32 amino acids, respectively (PCSK9[1:33] and RPL27[1:32]). The sequences contain distinct PF846 stall sites and were both fused to a GFP reporter. The GFP reporter and a frameshift mutant of PCSK9[1:33] (PCSK9-FS[1:33]), which mutates the nascent chain sequence while maintaining a nearly identical mRNA sequence, were included as negative controls.[13] […] Sequence sensitivity was further confirmed by an N-terminal deletion series of PCSK9[1:33]-GFP; deletion of N-terminal residues increasingly ablated PCSK9[1:33]-GFP translation sensitivity to PF846 (Figure 1D). The WG IVTT assay was miniaturized using a previously described microfluidic circuit modified for longer incubation times (Figure S1)[27] using PF846 as a positive control compound, and assay statistical quality was calculated (Z′=0.7) (Figure 1E). […] Assay statistical quality using PC-HygB positive control beads was similarly calculated (Z′ = 0.75, Figure 1H). […]
as §1, §2

[2] = tested on: PCSK9[1:33]-GFP N-terminal deletions; assay: WG IVTT end point assay of PCSK9[1:33]-GFP N-terminal deletions; assay type: biochemical, wheat germ; settings: deletion of 15 or more N-terminal residues, 100 μM PF846
Protocol: (C) PF846 dose–response IVTT activity assays of PCSK9[1:33]-GFP, PCSK9-FS[1:33]-GFP, RPL27[1:32]-GFP, and the GFP reporters and (D) end point assays (100 μM PF846) of PCSK9[1:33]-GFP N-terminal deletions were conducted to determine sensitivity to PF846 in WG IVTT (% activity relative to DMSO control).

[3] = tested on: PCSK9 expression in HepG2 cells; assay: HepG2 cellular assay, PCSK9 Western blot; assay type: cell-based; settings: 16 h treatment, 5 or 50 µM, triplicate, normalized to DMSO
Protocol: Reaction buffer (1 µL) and template (0.5 µL) were added and reaction progress was
Relative activity was cal-
450 culated using the slope of fluorescence increase over time (15–30 min post reaction initia-
Gene blocks were purchased from IDT
Digestion with Sgf I and PmeI allowed for
Sequence-verified plasmids
460 were cloned into DH5α E. coli for standard large-scale DNA plasmid preparation.
Gene blocks were purchased
Digestion with NdeI and XhoI
470 (4.5 g/L high-glucose DMEM, 2 mM L-glutamine, 10% fetal bovine serum, 1% penicillin-
Cells were lysed (100 µL RIPA buffer,
Protein lysates (24 µg) were separated by denaturing polyacrylamide
480 PCSK9 rabbit monoclonal antibody, 5% BSA in PBS-T). The PCSK9 probed membrane
HRP-labeled bands were visualized
Figure S12. […] PCSK9 expression in HepG2 cells
treated 16 h with PF846 or screening hit 8 (5 or 50 µM) or vehicle control (DMSO) was analyzed in triplicate
(also on this page, place not known: S12894 GAPDH pro m DMSO 5 μM DMSO μM 5 μM 50 μM PCSK9 PF846 hit8 50)
(1 picture or pasted object on this page, not shown here)

[4] = tested on: PCSK9[1:33]-GFP translation; assay: Wheat germ lysate (WG) IVTT microplate activity assay, PCSK9[1:33]-GFP template; assay type: biochemical; settings: WG IVTT
Source text: (§3) A commercially available wheat germ lysate (WG) IVTT system was employed to assay translation inhibition. Translation activity was detected via a GFP reporter, and the assay was miniaturized to picoliter-scale microfluidic droplets (Figure 1A,B). […] PCSK9 and RPL27 were truncated to the first 33 and 32 amino acids, respectively (PCSK9[1:33] and RPL27[1:32]). The sequences contain distinct PF846 stall sites and were both fused to a GFP reporter. The GFP reporter and a frameshift mutant of PCSK9[1:33] (PCSK9-FS[1:33]), which mutates the nascent chain sequence while maintaining a nearly identical mRNA sequence, were included as negative controls.[13] […] Sequence sensitivity was further confirmed by an N-terminal deletion series of PCSK9[1:33]-GFP; deletion of N-terminal residues increasingly ablated PCSK9[1:33]-GFP translation sensitivity to PF846 (Figure 1D). The WG IVTT assay was miniaturized using a previously described microfluidic circuit modified for longer incubation times (Figure S1)[27] using PF846 as a positive control compound, and assay statistical quality was calculated (Z′=0.7) (Figure 1E). To confirm detection of translation inhibition from library beads, hygromycin B, a nonselective aminoglycoside translation inhibitor, was coupled to beads displaying a photocleavable linker (PC-HygB). UV irradiation releases hygromycin from the bead, allowing it to interact with the WG IVTT assay in the droplet. PC-HygB bead photocleavage supernatant inhibited PCSK9[1:33]-GFP translation both in a microplate assay and in microfluidic droplets (Figure 1F,G, S2). Assay statistical quality using PC-HygB positive control beads was similarly calculated (Z′ = 0.75, Figure 1H). […]
(§4) 436 Microplate IVTT Assays
(§5) 437 Wheat germ lysate IVTT plate assays were prepared as 5 µL reactions. Wheat germ lysate
(§6) 438 (3 µL) was added to test compound or vehicle control (1 µL) in a 384-well black microplate
(§7) 439 and the reaction was incubated (10 min, RT). Template (1 µL) was added and reaction
(§8) 440 progress was immediately monitored (λex = 480 nm, λem = 530 nm, 27 °C, 2 h). Rela-
(§9) 441 tive activity was calculated using the slope of fluorescence increase over time (at 15–30
(§10) 442 min post reaction initiation) for compound samples relative to that of the DMSO vehicle
443 control. […]

[5] = tested on: PCSK9-FS[1:33]-GFP translation; assay: WG IVTT microplate activity assay, PCSK9-FS[1:33]-GFP frameshift counter template; assay type: biochemical, wheat germ
Source text: as §3, §4, §5, §6, §7, §8, §9, §10
443 control. All microplate experiments contained 25 ng/µL plasmid, except for assays with
445 respectively. HeLa lysate IVTT plate assays were prepared as 5.5 µL reactions. […]

[6] = tested on: MST1[1:39]-GFP translation; design: method as in PMID 28323820; settings: cited from earlier work

For `O=C(c1ccc(-n2nnc3cccnc32)cc1)N(c1ncccc1Cl)[C@@H]1CCCNC1` [PF846, PF-06446846, reference compound], the “activity on RPL27[1:32]-GFP translation (in words)” value [1] was “inhibited the translation”, the “activity on GFP reporter control translation (in words)” value (GFP reporter translation) was “did not affect the translation” and the “PF846 activity on N-terminal deletions of PCSK9[1:33]-GFP (in words)” value [2] was “completely eliminates PF846 activity”. For the same compound, the “PCSK9 protein levels in HepG2 cells (in words)” value [3] was “significantly reduced”, the “inhibition of PCSK9[1:33]-GFP translation (in words)” value [4] was “inhibited the translation” and the IC50 ([4]; PCSK9[1:33]-GFP template, triplicate, ± standard deviation of the mean) was 3.9 ± 0.8 µM. For the same compound, the IC50 ([5]; PCSK9-FS[1:33]-GFP template, triplicate, undetectable IC50 marked >300) was > 300 µM, the “activity on PCSK9-FS[1:33]-GFP translation (in words)” value ([5]; frameshift control) was “did not affect the translation” and the “relative potency on MST1[1:39]-GFP versus PCSK9[1:33]-GFP and RPL27[1:32]-GFP translation (in words)” value [6] was “more potently inhibits”.
